# Laboratory results taken from patent publication US6852673B2, “Herbicidal pyridine compounds” (BASF Aktiengesellschaft, priority 1998, dated 2005).
# Experiments:
# Assay type in all cases: in vivo
# Glycine max (GLXMA) [1] = test: Pre-emergence herbicidal evaluation, soyabeans
# In short: (§1)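 Rating done 2–4 weeks post-treatment in the greenhouse. Compound, in aqueous acetone, was sprayed onto soil surface right after sowing, at rates equivalent to about 0.0125–0.4 kg per hectare, before crop or weed emergence.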
# Oryza sativum (ORYSA) [2] = test: Pre-emergence herbicidal evaluation, rice
# In short: as §1
# [3] = system: Triticum aestivum (TRZAW); test: Pre-emergence herbicidal evaluation, winter wheat
# In short: as §1
# Zea mays (ZEAMX) [4] = test: Pre-emergence herbicidal evaluation, maize
# In short: as §1
# [5] = system: Abutilon theophrasti (ABUTH); test: Pre-emergence herbicidal evaluation, velvetleaf
# In short: as §1
# Galium aparine (GALAP) [6] = test: Pre-emergence herbicidal evaluation, cleaver
# In short: as §1
# [7] = system: Ipomoea hederacea (IPOHE); test: Pre-emergence herbicidal evaluation, morning glory
# In short: as §1
# [8] = system: Matricaria inodora (MATIN); test: Pre-emergence herbicidal evaluation, mayweed
# In short: as §1
# Solanum nigrum (SOLNI) = test: Pre-emergence herbicidal evaluation, black nightshade
# In short: as §1
# Stellaria media (STEME) [9] = test: Pre-emergence herbicidal evaluation, chickweed
# In short: as §1
# [10] = system: Alopecurus myosuroides (ALOMY); test: Pre-emergence herbicidal evaluation, black grass
# In short: as §1
# Setaria viridis (SETVI) [11] = test: Pre-emergence herbicidal evaluation, green foxtail
# In short: as §1
# Glycine max (GLXMA) [12] = test: Post-emergence herbicidal evaluation, soyabeans; settings: rated 2 to 4 weeks after treatment
# Protocol: [table] [table] […] These acetone solutions are diluted with water and the resulting formulations applied at dosage levels equivalent of about 0.03 to 0.4 kg per hectare of test compound per pot. After spraying the plants are placed on greenhouse benches and are cared for in the usual manner, commensurate with conventional greenhouse practices. From 2 to 4 weeks after treatment, the seedling plants are examined and rated according to the rating system provided above. A rating 0 indicates growth as untreated control, a rating 9 indicates death.
# Oryza sativum (ORYSA) [13] = test: Post-emergence herbicidal evaluation, rice; settings: rated 2 to 4 weeks after treatment
# In short: (§2)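 Post-emergence spray; acetone stock diluted in water; dose ≈0.03–0.4 kg/ha per pot; greenhouse, routine care; visual score at 2–4 wk, 0 = untreated-like, 9 = dead.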
# [14] = system: Triticum aestivum (TRZAW); test: Post-emergence herbicidal evaluation, winter wheat; settings: rated 2 to 4 weeks after treatment
# In short: as §2
# Zea mays (ZEAMX) [15] = test: Post-emergence herbicidal evaluation, maize; settings: rated 2 to 4 weeks after treatment
# In short: as §2
# [16] = system: Abutilon theophrasti (ABUTH); test: Post-emergence herbicidal evaluation, velvetleaf; settings: rated 2 to 4 weeks after treatment
# In short: as §2
# [17] = system: Ambrosia artemiisifolia (AMBEL); test: Post-emergence herbicidal evaluation, ragweed; settings: rated 2 to 4 weeks after treatment
# In short: as §2
# Galium aparine (GALAP) [18] = test: Post-emergence herbicidal evaluation, cleaver; settings: rated 2 to 4 weeks after treatment
# In short: as §2
# [19] = system: Ipomoea hederacea (IPOHE); test: Post-emergence herbicidal evaluation, morning glory; settings: rated 2 to 4 weeks after treatment
# In short: as §2
# Lamium purpureum (LAMPU) = test: Post-emergence herbicidal evaluation, purple deadnettle; settings: rated 2 to 4 weeks after treatment
# In short: as §2
# [20] = system: Matricaria inodora (MATIN); test: Post-emergence herbicidal evaluation, mayweed; settings: rated 2 to 4 weeks after treatment
# In short: as §2
# Stellaria media (STEME) [21] = test: Post-emergence herbicidal evaluation, chickweed; settings: rated 2 to 4 weeks after treatment
# In short: as §2
# [22] = system: Alopecurus myosuroides (ALOMY); test: Post-emergence herbicidal evaluation, black grass; settings: rated 2 to 4 weeks after treatment
# In short: as §2
# [23] = system: Digitaria sanguinalis (DIGSA); test: Post-emergence herbicidal evaluation, large crabgrass; settings: rated 2 to 4 weeks after treatment
# In short: as §2
# Setaria viridis (SETVI) [24] = test: Post-emergence herbicidal evaluation, green foxtail; settings: rated 2 to 4 weeks after treatment
# In short: as §2
compound,measurement,setting,value
"Cc1cc(OC=CCC(F)(F)F)nc(Oc2cc(C(F)(F)F)nn2C)c1 [Example 2, 2-(1-Methyl-3-trifluoromethylpyrazol-5-yloxy)-4-methyl-6-(4,4,4-trifluorobut-1-enyloxy)pyridine]",GLXMA rating,Glycine max (GLXMA) [1]; dose 0.013 kg/ha,0 (0 - No effect)
same,GLXMA rating,Glycine max (GLXMA) [1]; dose 0.025 kg/ha,1 (1 - Trace effect)
same,GLXMA rating,Glycine max (GLXMA) [1]; dose 0.4 kg/ha,4 (4 - Injury)
same,ORYSA rating,Oryza sativum (ORYSA) [2]; dose 0.013 kg/ha,0 (0 - No effect)
same,ORYSA rating,Oryza sativum (ORYSA) [2]; dose 0.025 kg/ha,1 (1 - Trace effect)
same,ORYSA rating,Oryza sativum (ORYSA) [2]; dose 0.1 kg/ha,2 (2 - Slight effect)
same,ORYSA rating,Oryza sativum (ORYSA) [2]; dose 0.4 kg/ha,3 (3 - Moderate effect)
same,TRZAW rating,[3]; dose 0.013 kg/ha,0 (0 - No effect)
same,TRZAW rating,[3]; dose 0.025 kg/ha,0 (0 - No effect)
same,TRZAW rating,[3]; dose 0.1 kg/ha,1 (1 - Trace effect)
same,TRZAW rating,[3]; dose 0.4 kg/ha,3 (3 - Moderate effect)
same,ZEAMX rating,Zea mays (ZEAMX) [4]; dose 0.013 kg/ha,0 (0 - No effect)
same,ZEAMX rating,Zea mays (ZEAMX) [4]; dose 0.025 kg/ha,1 (1 - Trace effect)
same,ZEAMX rating,Zea mays (ZEAMX) [4]; dose 0.1 kg/ha,2 (2 - Slight effect)
same,ZEAMX rating,Zea mays (ZEAMX) [4]; dose 0.4 kg/ha,4 (4 - Injury)
same,ABUTH rating,[5]; dose 0.013 kg/ha,1 (1 - Trace effect)
same,ABUTH rating,[5]; dose 0.025 kg/ha,4 (4 - Injury)
same,ABUTH rating,[5]; dose 0.1 kg/ha,6 (6 - Herbicidal effect)
same,ABUTH rating,[5]; dose 0.4 kg/ha,9 (9 - Complete kill)
same,GALAP rating,Galium aparine (GALAP) [6]; dose 0.013 kg/ha,0 (0 - No effect)
same,GALAP rating,Galium aparine (GALAP) [6]; dose 0.025 kg/ha,0 (0 - No effect)
same,GALAP rating,Galium aparine (GALAP) [6]; dose 0.1 kg/ha,2 (2 - Slight effect)
same,GALAP rating,Galium aparine (GALAP) [6]; dose 0.4 kg/ha,9 (9 - Complete kill)
same,IPOHE rating,[7]; dose 0.013 kg/ha,1 (1 - Trace effect)
same,IPOHE rating,[7]; dose 0.025 kg/ha,3 (3 - Moderate effect)
same,IPOHE rating,[7]; dose 0.1 kg/ha,3 (3 - Moderate effect)
same,IPOHE rating,[7]; dose 0.4 kg/ha,7 (7 - Good herbicidal effect)
same,MATIN rating,[8]; dose 0.013 kg/ha,4 (4 - Injury)
same,MATIN rating,[8]; dose 0.025 kg/ha,6 (6 - Herbicidal effect)
same,MATIN rating,[8]; dose 0.1 kg/ha,8 (8 - Approaching complete kill)
same,MATIN rating,[8]; dose 0.4 kg/ha,9 (9 - Complete kill)
same,SOLNI rating,Solanum nigrum (SOLNI); dose 0.013 kg/ha,0 (0 - No effect)
same,SOLNI rating,Solanum nigrum (SOLNI); dose 0.025 kg/ha,1 (1 - Trace effect)
same,SOLNI rating,Solanum nigrum (SOLNI); dose 0.1 kg/ha,8 (8 - Approaching complete kill)
same,SOLNI rating,Solanum nigrum (SOLNI); dose 0.4 kg/ha,9 (9 - Complete kill)
same,STEME rating,Stellaria media (STEME) [9]; dose 0.013 kg/ha,0 (0 - No effect)
same,STEME rating,Stellaria media (STEME) [9]; dose 0.025 kg/ha,0 (0 - No effect)
same,STEME rating,Stellaria media (STEME) [9]; dose 0.1 kg/ha,9 (9 - Complete kill)
same,STEME rating,Stellaria media (STEME) [9]; dose 0.4 kg/ha,9 (9 - Complete kill)
same,ALOMY rating,[10]; dose 0.013 kg/ha,1 (1 - Trace effect)
same,ALOMY rating,[10]; dose 0.025 kg/ha,1 (1 - Trace effect)
same,ALOMY rating,[10]; dose 0.1 kg/ha,7 (7 - Good herbicidal effect)
same,ALOMY rating,[10]; dose 0.4 kg/ha,9 (9 - Complete kill)
same,SETVI rating,Setaria viridis (SETVI) [11]; dose 0.013 kg/ha,5 (5 - Definite injury)
same,SETVI rating,Setaria viridis (SETVI) [11]; dose 0.025 kg/ha,6 (6 - Herbicidal effect)
same,SETVI rating,Setaria viridis (SETVI) [11]; dose 0.1 kg/ha,9 (9 - Complete kill)
same,SETVI rating,Setaria viridis (SETVI) [11]; dose 0.4 kg/ha,9 (9 - Complete kill)
same,GLXMA rating,Glycine max (GLXMA) [12]; dose 0.03 kg/ha,7 (7 - Good herbicidal effect)
same,GLXMA rating,Glycine max (GLXMA) [12]; dose 0.1 kg/ha,8 (8 - Approaching complete kill)
same,GLXMA rating,Glycine max (GLXMA) [12]; dose 0.4 kg/ha,8 (8 - Approaching complete kill)
same,ORYSA rating,Oryza sativum (ORYSA) [13]; dose 0.03 kg/ha,2 (2 - Slight effect)
same,ORYSA rating,Oryza sativum (ORYSA) [13]; dose 0.1 kg/ha,3 (3 - Moderate effect)
same,ORYSA rating,Oryza sativum (ORYSA) [13]; dose 0.4 kg/ha,3 (3 - Moderate effect)
same,TRZAW rating,[14]; dose 0.03 kg/ha,2 (2 - Slight effect)
same,TRZAW rating,[14]; dose 0.1 kg/ha,3 (3 - Moderate effect)
same,TRZAW rating,[14]; dose 0.4 kg/ha,3 (3 - Moderate effect)
same,ZEAMX rating,Zea mays (ZEAMX) [15]; dose 0.03 kg/ha,2 (2 - Slight effect)
same,ZEAMX rating,Zea mays (ZEAMX) [15]; dose 0.1 kg/ha,4 (4 - Injury)
same,ZEAMX rating,Zea mays (ZEAMX) [15]; dose 0.4 kg/ha,5 (5 - Definite injury)
same,ABUTH rating,[16]; dose 0.03 kg/ha,8 (8 - Approaching complete kill)
same,ABUTH rating,[16]; dose 0.1 kg/ha,8 (8 - Approaching complete kill)
same,ABUTH rating,[16]; dose 0.4 kg/ha,9 (9 - Complete kill)
same,AMBEL rating,[17]; dose 0.03 kg/ha,5 (5 - Definite injury)
same,AMBEL rating,[17]; dose 0.1 kg/ha,6 (6 - Herbicidal effect)
same,AMBEL rating,[17]; dose 0.4 kg/ha,8 (8 - Approaching complete kill)
same,GALAP rating,Galium aparine (GALAP) [18]; dose 0.03 kg/ha,5 (5 - Definite injury)
same,GALAP rating,Galium aparine (GALAP) [18]; dose 0.1 kg/ha,7 (7 - Good herbicidal effect)
same,GALAP rating,Galium aparine (GALAP) [18]; dose 0.4 kg/ha,9 (9 - Complete kill)
same,IPOHE rating,[19]; dose 0.03 kg/ha,8 (8 - Approaching complete kill)
same,IPOHE rating,[19]; dose 0.1 kg/ha,9 (9 - Complete kill)
same,IPOHE rating,[19]; dose 0.4 kg/ha,9 (9 - Complete kill)
same,LAMPU rating,Lamium purpureum (LAMPU); dose 0.03 kg/ha,8 (8 - Approaching complete kill)
same,LAMPU rating,Lamium purpureum (LAMPU); dose 0.1 kg/ha,8 (8 - Approaching complete kill)
same,LAMPU rating,Lamium purpureum (LAMPU); dose 0.4 kg/ha,8 (8 - Approaching complete kill)
same,MATIN rating,[20]; dose 0.03 kg/ha,6 (6 - Herbicidal effect)
same,MATIN rating,[20]; dose 0.1 kg/ha,8 (8 - Approaching complete kill)
same,MATIN rating,[20]; dose 0.4 kg/ha,9 (9 - Complete kill)
same,STEME rating,Stellaria media (STEME) [21]; dose 0.03 kg/ha,4 (4 - Injury)
same,STEME rating,Stellaria media (STEME) [21]; dose 0.1 kg/ha,6 (6 - Herbicidal effect)
same,STEME rating,Stellaria media (STEME) [21]; dose 0.4 kg/ha,8 (8 - Approaching complete kill)
same,ALOMY rating,[22]; dose 0.03 kg/ha,2 (2 - Slight effect)
same,ALOMY rating,[22]; dose 0.1 kg/ha,5 (5 - Definite injury)
same,ALOMY rating,[22]; dose 0.4 kg/ha,8 (8 - Approaching complete kill)
same,DIGSA rating,[23]; dose 0.03 kg/ha,7 (7 - Good herbicidal effect)
same,DIGSA rating,[23]; dose 0.1 kg/ha,9 (9 - Complete kill)
same,DIGSA rating,[23]; dose 0.4 kg/ha,9 (9 - Complete kill)
same,SETVI rating,Setaria viridis (SETVI) [24]; dose 0.03 kg/ha,4 (4 - Injury)
same,SETVI rating,Setaria viridis (SETVI) [24]; dose 0.1 kg/ha,8 (8 - Approaching complete kill)
same,SETVI rating,Setaria viridis (SETVI) [24]; dose 0.4 kg/ha,8 (8 - Approaching complete kill)
